Drawing on ChEMBL document CHEMBL4052640 (Eur J Med Chem, 2017), this text covers MCC, EC50 and CC50 for 10 molecules.

The nature of data set [1]: Cytotoxicity against human HeLa cells assessed as alterations in cell morphology by microscopic analysis. Type of data set: cell-based.
Data set [2] deals with Coxsackievirus B4. The format is functional. The settings on record: Enterovirus B, Vero.
The test system of the next data set is Sindbis virus. Type of data set: functional. The settings on record: Vero.
Data set [3] relates to Coxsackievirus B4. Type of data set: functional, cell-based. To be noted: Enterovirus B, HeLa.
The test system of another data set is MDCK. The data set is described as follows: Cytotoxicity against dog MDCK cells assessed as reduction in cell viability measured after 5 to 6 days by MTS assay. The format is cell-based, Canis lupus familiaris. In general terms: Formazan colour is commonly taken as a measure of viable cells.
Data set [4] relates to Respiratory syncytial virus. The data set is described as follows: microbe, parasite or virus in culture. The settings on record: human respiratory syncytial virus, HeLa.
For another data set, the system named is Yellow fever virus. The data set is described as follows: microbe, parasite or virus in culture. To be noted: Vero.
The subject of data set [5] is Vesicular stomatitis virus. The data set is described as follows: microbe, parasite or virus in culture. The settings on record: HeLa.
For the next data set, the system named is Human respirovirus 3. The data set is described as follows: microbe, parasite or virus in culture. The settings on record: Human respirovirus 3, Vero.
In data set [6] the test system is Respiratory syncytial virus. Type of data set: functional, cell-based. To be noted: human respiratory syncytial virus, HeLa.
A further data set relates to Punta Toro virus. Type of data set: functional. The settings on record: Vero.
The subject of data set [7] is Mammalian orthoreovirus 1. Type of data set: functional. To be noted: Mammalian orthoreovirus 1, Vero.
Data set [8] relates to Influenza A virus. The format is functional, cell-based. The settings on record: A/Ned/378/05(H1N1), MDCK.
Data set [9] deals with Influenza A virus. The format is functional, cell-based. To be noted: A/Ned/378/05(H1N1), MDCK. The source holds these as a separate data set.
Data set [10] can be described thus: cells. To be noted: MDCK.
A short description of data set [11]: cells. The settings on record: Influenza A virus, MDCK.
A short description of data set [12]: cells. The settings on record: Influenza A virus, MDCK. The source holds these as a separate data set.
In the next data set the test system is Influenza B virus. Put plainly: microbe, parasite or virus in culture. To be noted: B/Ned/537/05, MDCK.

By EC50 is commonly meant the concentration needed to bring the measured effect to its halfway point. Read a low EC50 as a more potent agent. The term CC50 denotes the concentration at which the toxic effect on the cells reaches its halfway point. Regarding `CC1(C)N=C(N)N=C(N)N1c1cccc(C(F)(F)F)c1`, in [1], the MCC came to 20 µM. Further, the EC50 is > 100 µM with Coxsackievirus B4 [2]; > 100 µM in the data set with Sindbis virus; > 100 µM with Coxsackievirus B4 [3]; 0.03 µM in data set [4]; > 100 µM in the data set with Yellow fever virus; > 100 µM in [5]. Besides, in the data set with Human respirovirus 3, the EC50 is > 100 µM. Moreover, the CC50 in the data set with MDCK was 6.1 µM.
As to `CCC1(C)N=C(N)N=C(N)N1c1ccc(Cl)cc1` (stereo not drawn), the EC50 in [6] is 5.4 µM; with Punta Toro virus, > 100 µM; in the data set on Coxsackievirus B4 [2] it was > 100 µM; in the data set on Sindbis virus, > 100 µM; in data set [7] it was > 100 µM; with Coxsackievirus B4 [3], > 100 µM. In addition, the EC50 was > 100 µM with Influenza A virus [8]; > 100 µM in the data set on Influenza A virus [9]; 2.2 µM in the data set “cells [10]”; > 83 µM in “cells [11]”; > 83 µM in the data set “cells [12]”; > 100 µM in the data set with Yellow fever virus. Moreover, the figures for the EC50 (in data set [5]; with Human respirovirus 3; in the data set on Influenza B virus) were > 100 µM, > 100 µM and 8.3 µM, respectively. In the data set with MDCK, the CC50 was > 100 µM.
Take `CC1(C)N=C(N)N=C(N)N1c1ccc(Br)cc1`: the EC50 in [6] was 0.16 µM; in the data set with Punta Toro virus, > 100 µM; in the data set with Coxsackievirus B4 [2], > 100 µM; in the data set with Sindbis virus, > 100 µM; in data set [7], > 100 µM; in the data set with Coxsackievirus B4 [3], > 100 µM. The EC50 is 7.3 µM in the data set with Influenza A virus [8]; 21 µM with Influenza A virus [9]; 1 µM in “cells [10]”; 19 µM in “cells [11]”; 39 µM in “cells [12]”; > 100 µM in the data set with Yellow fever virus. For the same molecule, the EC50 was > 100 µM in data set [5], > 100 µM with Human respirovirus 3 and 2.9 µM with Influenza B virus. The CC50 in the data set with MDCK was determined as 53 µM.
`CC1(C)N=C(N)N=C(N)N1c1ccc(Cl)c(Cl)c1` [CHLORCYCLOGUANIL]: the EC50 is 0.0075 µM in [6]; > 100 µM in the data set on Punta Toro virus; > 100 µM with Coxsackievirus B4 [2]; > 100 µM in the data set with Sindbis virus; 3.8 µM in [7]; > 100 µM in the data set on Coxsackievirus B4 [3]. Also, the EC50 is 0.35 µM in the data set with Influenza A virus [8]; 0.55 µM in the data set with Influenza A virus [9]; 0.03 µM in “cells [10]”; 0.72 µM in the data set “cells [11]”; 1.4 µM in the data set “cells [12]”; > 100 µM with Yellow fever virus. The EC50 in data set [5] was > 100 µM; in the data set with Human respirovirus 3, > 100 µM; in the data set on Influenza B virus it was 0.08 µM. Further, the CC50 in the data set on MDCK turned out to be 6.7 µM.
Take `CC(C)C1(C)N=C(N)N=C(N)N1c1ccc(Cl)cc1` (stereo not drawn): the EC50 is 0.8 µM in data set [6]; > 100 µM with Punta Toro virus; > 100 µM in the data set on Coxsackievirus B4 [2]; > 100 µM with Sindbis virus; > 100 µM in [7]; > 100 µM with Coxsackievirus B4 [3]. For the same molecule, the EC50 with Influenza A virus [8] is 68 µM; in the data set with Influenza A virus [9], 45 µM; in the data set “cells [10]”, 1 µM; in “cells [11]”, 24 µM; in “cells [12]” it was 33 µM; in the data set on Yellow fever virus, > 100 µM. The EC50 in [5] was > 100 µM; in the data set on Human respirovirus 3, > 100 µM; with Influenza B virus, 2.8 µM. Besides, the CC50 in the data set on MDCK was > 100 µM.
As to `NC1=NC(c2ccccc2)N(c2ccc(Cl)cc2)C(N)=N1` (stereo not drawn), the EC50 (in [6]; in the data set with Punta Toro virus; with Coxsackievirus B4 [2]; with Sindbis virus; in [7]; in the data set on Coxsackievirus B4 [3]) was > 100 µM in each case. Also, the EC50 in the data set on Influenza A virus [8] is > 100 µM; in the data set with Influenza A virus [9] it was > 100 µM; in “cells [10]” it was > 100 µM; in the data set “cells [11]”, > 83 µM; in “cells [12]” it was > 83 µM; with Yellow fever virus, > 100 µM. Further, the EC50 (in data set [5]; in the data set with Human respirovirus 3; in the data set on Influenza B virus) was > 100 µM in each case. In the data set with MDCK, the CC50 is > 100 µM.
Take `CCCC1N=C(N)N=C(N)N1c1ccc(Cl)cc1` (stereo not drawn): the EC50 (in data set [6]; in the data set with Punta Toro virus; with Coxsackievirus B4 [2]; with Sindbis virus; in data set [7]; in the data set on Coxsackievirus B4 [3]) was > 100 µM throughout. In addition, the EC50 in the data set with Influenza A virus [8] was > 100 µM; in the data set with Influenza A virus [9], > 100 µM; in the data set “cells [10]”, > 100 µM; in “cells [11]”, > 83 µM; in the data set “cells [12]”, > 83 µM; with Yellow fever virus, > 100 µM. In addition, the EC50 in [5] was > 100 µM; in the data set on Human respirovirus 3 it was > 100 µM; in the data set on Influenza B virus, 29 µM. Also, in the data set with MDCK, the CC50 is > 100 µM.
For `CC1(C)N=C(N)N=C(N)N1c1ccc(Cl)cc1Cl`, the EC50 (in data set [6]; with Punta Toro virus; in the data set on Coxsackievirus B4 [2]; in the data set with Sindbis virus; in data set [7]; in the data set on Coxsackievirus B4 [3]) was > 100 µM in each case. For the same molecule, the EC50 in the data set with Influenza A virus [8] was > 100 µM; with Influenza A virus [9], > 100 µM; in the data set “cells [10]”, > 100 µM; in the data set “cells [11]”, > 83 µM; in “cells [12]” it was ≥ 83 µM; with Yellow fever virus, > 100 µM. Also, the EC50 (in data set [5]; in the data set with Human respirovirus 3; in the data set with Influenza B virus) was > 100 µM in each case. Further, in the data set with MDCK, the CC50 is > 100 µM.
As to `NC1=NC2(CCCC2)N(c2ccc(Cl)cc2)C(N)=N1`, the EC50 in [6] was 8 µM; in the data set on Punta Toro virus, > 100 µM; in the data set with Coxsackievirus B4 [2] it was > 100 µM; with Sindbis virus, > 100 µM; in data set [7], > 100 µM; in the data set on Coxsackievirus B4 [3] it was > 100 µM. Also, the EC50 was > 100 µM in the data set on Influenza A virus [8]; > 100 µM with Influenza A virus [9]; 6.1 µM in “cells [10]”; > 83 µM in “cells [11]”; > 83 µM in the data set “cells [12]”; > 100 µM in the data set with Yellow fever virus. Moreover, the EC50 was > 100 µM in data set [5], > 100 µM in the data set with Human respirovirus 3 and 18 µM in the data set with Influenza B virus. The CC50 in the data set with MDCK is > 100 µM.
Regarding `CC1N=C(N)N=C(N)N1c1ccc(Cl)cc1` (stereo not drawn), the EC50 in data set [6] was 6.8 µM; with Punta Toro virus, > 100 µM; in the data set with Coxsackievirus B4 [2] it was > 100 µM; in the data set with Sindbis virus, > 100 µM; in data set [7], > 100 µM; with Coxsackievirus B4 [3] it was > 100 µM. Besides, the EC50 with Influenza A virus [8] is > 100 µM; in the data set on Influenza A virus [9], > 100 µM; in “cells [10]”, 4.9 µM; in “cells [11]”, > 83 µM; in “cells [12]”, > 83 µM; in the data set with Yellow fever virus, > 100 µM. Also, the EC50 was > 100 µM in data set [5], > 100 µM in the data set with Human respirovirus 3 and 17 µM in the data set on Influenza B virus. Besides, the CC50 in the data set with MDCK was > 100 µM.
